Experimental data from US20250325402A1, “M[…] FOR I[…] METHODS OF USING THE SAME” ([…]., priority 2024, published 2025).

Key:
[1] = parameters: species or system Yucatan minipig; details: minipig, in vivo
From the text: OCLX-SCDD alpha prototype targeting of the SC space with ICG in pig eyes (FIG. 12).
Suprachoroidal injections enable precise, targeted delivery to the retina, retinal pigment epithelium (RPE), and choroid, potentially offering higher bioavailability to the diseased tissues while minimizing impact on anterior segment tissues. To improve SC gene therapy outcomes for AMD, we tested the alpha prototype device to determine whether the SCDD results in ICG dye distribution to the posterior pole. […] Indocyanine Green (ICG) (5 mg/ml), OS: 120 μl or OD: 150 μl, was injected using the OCLX-SCDD 925 μm alpha prototype as follows: (1) Mark and confirm selected injection site; (2) Insert the microneedle, being sure to create a small dimple on the ocular surface to allow the tissue to displace gently while the needle enters the suprachoroidal space; (3) Inject slowly and deliberately for 5 seconds; (4) After finishing the drug injection, hold the microinjector in place for an additional 5 seconds. Light pressure should be applied with a cotton swab after microinjector removal for about 5 seconds; and (5) Check IOP after injection. […]
To evaluate the effect of SC injection, images were taken after removal of the retina and RPE/Choroidal tissue (FIG. 14). The ICG stained area was measured with Image-pro Plus 6. […]

[2] = parameters: species or system pig
From the text: Ex vivo assessment of ocular biodistribution of ICG with OCLX-SCDD Proof of Concept (POC) prototypes and Clearside needles at 900 and 1100 μm in pig eyes.
In this non-GLP study, we evaluated the ability of OCLX-SCDD to deliver accurately to the suprachoroidal space (SCS) and determined the optimal needle length for effective delivery. […] Ex vivo testing involved a comparative analysis of the dye's ocular biodistribution between OCLX-SCDD POCs 1-4 and the established Clearside device, allowing us to determine whether the new design offers improved delivery accuracy and effectiveness. Forty pig eyes were obtained from a farm 1 day prior to testing and SC 120 μl injections (5 mg/ml) were performed (one supertemporal injection site/eye) with ICG. Needles used included 900 μm and 1100 μm length samples from both Oculogenex and Clearside (CLS-900 and CLS-1100). One hour after injection, dissection of the eyes was performed. Images were taken with an iPhone 15 Pro camera after removal of retina, RPE/Choroidal tissue. The ICG-stained area was measured by a masked reader with Image-pro Plus 6 (Media Cybernetisc, Rockville, MD, USA) to objectively assess ICG distribution through software.

[3] = In vivo ocular biodistribution of ICG with OCLX-SCDD POC4 and Clearside needles at 1100 μm; parameters: species or system Yucatan minipig; details: for ICG stained area, total coverage area: ICG 5 mg/ml SC, 1 h after injection
From the text: In Vivo assessment of ocular biodistribution of ICG with the OCLX-SCDD POC prototype and Clearside needles at 1100 μm in pig eyes.
Suprachoroidal injections enable precise, targeted delivery to the retina, retinal pigment epithelium (RPE), and choroid, potentially offering higher bioavailability to the diseased tissues while minimizing impact on anterior segment tissues. To improve the outcome of gene therapy for AMD through the SCS, we tested if the POC4 SCDD results in ICG dye at the back of the eye. […] This allows entrance into the suprachoroidal space in 4-month-old male minipigs (n=4). Indocyanine Green (ICG), 5 mg/ml, was injected using Clearside 1100 μm (OS) or POC4 of the OCLX-SCDD 1100 μm prototype device (OD) as follows: (1) Mark and confirm selected injection site; (2) Insert the microneedle, creating a small dimple on the ocular surface to allow the tissue to displace gently while the needle enters the suprachoroidal space; (3) Inject slowly and deliberately over 5 seconds to decrease discomfort; (4) After finishing the drug injection, hold the microinjector in place for an additional 3-5 seconds. Light pressure should be applied with a cotton swab after microinjector removal for about 5 seconds; and (5) Perform OCT imaging. (6) Euthanasia was performed according to the IACUC protocol, and 1 hour after injection, eyes were microdissected to assess ICG distribution.
The ICG stained area was measured with Image-pro Plus 6 equipment. […] One of four eyes injected with the OCLX-SCDD 1100 μm POC prototype device had trace amounts of ICG in the vitreous. Based on the results in FIG. 12, to avoid intravitreal injection, alpha prototypes were redesigned to have a shorter length, targeting 925 μm, and future pig studies were performed with this needle length.

CC1(C)C(/C=C/C=C/C=C/C=C2\N(CCCCS(=O)(=O)O)c3ccc4ccccc4c3C2(C)C)=[N+](CCCCS(=O)(=O)[O-])c2ccc3ccccc3c21 [ICG, Indocyanine Green]
Eyes with successful targeting of the SC space [1]: 100%
OCLX-SCDD prototypes that delivered ICG dye to the SCS alone, no biodistribution to other ocular tissues [2]: 100%
Comparison of ICG-stained area between POC4 and Clearside 1100 μm device ([3]; 1 hour after SC injection and microdissection): no significant difference
ICG stained area, total coverage area ([3]; minipigs in vivo, device Clearside 1100 μm): 55%
ICG stained area, total coverage area ([3]; minipigs in vivo, device OCLX-SCDD POC4 1100 μm): 55%
Eyes with trace amounts of ICG in the vitreous ([3]; minipigs in vivo, device OCLX-SCDD 1100 μm POC prototype): One of four
